Laboratory results: the NIST ThermoML archive (doi:10.1016/j.jct.2016.10.047)

Assays:
[1] = refractive index (other wavelength) (dimensionless); conditions: 94 kPa, Liquid, Wavelength=632.8 nm, minimum deviation method
[2] = refractive index (other wavelength) (dimensionless); xn = mol fraction of the nth substance listed; conditions: 94 kPa, Liquid, Wavelength=632.8 nm, minimum deviation method, x2 = 0

CCCCCCCC[n+]1ccn(C)c1.F[P-](F)(F)(F)(F)F [1-octyl-3-methylimidazolium hexafluorophosphate]
[1]
Conditions | refractive index
298.19 K | 1.4215
300.2 K | 1.421
302.19 K | 1.4204
304.2 K | 1.4199
306.22 K | 1.4193
308.24 K | 1.4188
310.25 K | 1.4183
312.24 K | 1.4178

CC(C)O [propan-2-ol]
[1]
Conditions | refractive index
298.21 K | 1.3736
300.17 K | 1.3728
302.2 K | 1.3719
304.24 K | 1.371
306.22 K | 1.3701
308.22 K | 1.3693
310.24 K | 1.3684
312.2 K | 1.3675

CC(C)O [propan-2-ol] + CCCCCCCC[n+]1ccn(C)c1.F[P-](F)(F)(F)(F)F
[2]
Conditions | refractive index
298.21 K | 1.3736
300.17 K | 1.3728
302.2 K | 1.3719
304.24 K | 1.371
306.22 K | 1.3701
308.22 K | 1.3693
310.24 K | 1.3684
312.2 K | 1.3675
